Literature values, collected in patent US20130237424A1 (Cosmo Oil Co., LTD., priority 2010, published 2013).

Test system: plants
Details: given with being dissolved in a solution

## NCC(=O)CCC(=O)O [5-aminolevulinic acid]
  duration of growth promoting effect: about 2 weeks
